{"source": "patent EP2292225A1", "about": "(priority 1997, dated 1998)", "key": {"[1]": {"tested_on": "Vascular smooth muscle (BO54) cells", "format": "cell-based, baboon"}, "[2]": {"tested_on": "vascular smooth muscle cells", "format": "in vivo, pig", "conditions": "4 days post-trauma"}, "[3]": {"tested_on": "swine coronary arteries", "experiment": "Swine Coronary Artery Study: MIC catheter infusion after embolectomy or over-sized PTCA balloon trauma, morphometry at 4 weeks", "format": "in vivo", "procedure": "Swine coronary arteries were also traumatized by embolectomy or over-sized PTCA balloon, and then 8-16 ml of cytochalasin B at 8.0 µg/ml was infused into the arterial wall with a MIC catheter to achieve a therapeutic dose. Controls included a diluent control and a traumatized untreated control, and all animals were sacrificed 4 weeks after intervention and coronary arteries were fixed by perfusion. Morphometry was performed on selected sections from proximal, treated and distal segments of coronary arteries (Table 15).\nThe diameter of, or the area within, the EEL of the artery can be compared to controls as an indicator of the degree of vascular remodeling. The lack of a statistically significant increase in luminal area may be due to increased sample variablility, increased neointimal formation, and/or increased degree of trauma."}, "[4]": {"tested_on": "swine coronary arteries", "experiment": "Dose-response study of balloon traumatized coronary arteries (morphometry)", "format": "in vivo"}, "[5]": {"experiment": "Biodistribution after i.p. injection (HPLC)", "format": "in vivo, mice", "procedure": "Biodistribution of Cytochalasin B. To determine the biodistribution of cytochalasin B, mice were injected (i.p.) with 50 mg/kg cytochalasin B. Control mice were injected with DMSO/Tween 20/carboxymethyl cellulose (\"vehicle\"). The mice were sacrificed at 3, 12, 24 and 72 hours after cytochalasin B or vehicle administration. Organs were removed, homogenized, extracted and the amount of cytochalasin B in tissues quantitated by HPLC. About 75% of the cytochalasin B remained in the peritoneal cavity or at the injection site."}, "[6]": {"experiment": "Chronic (seven days) intravenous toxicity study", "format": "in vivo, Sprauge-Dawley rats", "conditions": "10080 min", "procedure": "To determine the toxicity of chronic cytochalasin B administration, cytochalasin B was administered intravenously to Sprauge-Dawley rats for seven days (Table 12). Data regarding food consumption, body weights, hematology parameters, clinical chemistry parameters, coagulation profiles, organ weights, clinical observations, gross necropsy findings and histopathology were collected. […]"}, "[7]": {"tested_on": "Vascular smooth muscle (BO54) cells", "format": "cell-based, baboon", "remark": "listed apart in the source"}, "[8]": {"tested_on": "Vascular smooth muscle cells (BO54)", "experiment": "Scratch assay of smooth muscle cell migration", "format": "cell-based, baboon", "set-up": "key: - = no migration; +1 = minimal; +2 = mild; +3 = moderate; +4 = marked (maximum density; limit of cell contact inhibition) migration", "conditions": "for Migration Grade in an Undisturbed Region of the Well / Migration Grade in the Cleared Area of the Well: Day 1/3/6/8/10 = r5/r7/r9/r11/r13; for morphological Toxicity Grade: Day 1/3/6/8/10 = r6/r8/r10/r12/r14, listed as CY[…]", "procedure": "Scratch assays to determine the extent of smooth muscle cell migration inhibition by cytochalasin B were performed in accordance with the following protocol: • Vascular smooth muscle cells (BO54) were derived from explants of baboon aortic smooth muscle, as described in Example 10. The cells were grown in flat bottom, six well tissue culture plates, which hold about 5 ml of medium. The vascular smooth muscle cells were plated at 200,000 cells/well and placed at 37°C in a humidified 5% CO2 incubator for 18 hours. The wells were then scratched with a sterile portion of a single edge razor blade that was held by clamp or pliers and was brought aseptically into contact with the bottom of the well at a 90° angle. The cells from a small area along the scratch were removed by a sterile cotton tipped applicator while the blade was in contact with the bottom of the well. After incubation, the presence of cells in the \"scratched\" area is indicative of cell migration across the scratch line.\nBriefly, a stock solution of cytochalasin B (Sigma Chemical Co.) in dimethyl sulfoxide (DMSO) at 1 mg/ml was prepared. Test dilutions of cytochalasin B or control medium were added. Each experiment included two sets of plates: A set: Test agent exposure for 1, 3, 6, 8 and 10 days only; and B set: Test agent exposure for 1, 3, 6, 8 and 10 days, followed by a seven day recovery time with control medium. Both sets of plates were fixed (10% formalin in PBS) and stained (0.02% crystal violet) at the end of the timed exposures. Test concentrations for cytochalasin B were 1, 0.1 and 0.01 µg/ml, and a negative medium control was included. Fresh medium and drug were supplied 3 times per week.\nIn this Table, \"M\" indicates Migration Grade, wherein - = no migration; +1 = minimal; +2 = mild; +3 = moderate; and +4 = marked (maximum density; limit of cell contact inhibition) migration of vascular smooth muscle cells into the cleared area adjacent to the scratch. In this Table, \"T\" denotes a morphological Toxicity Grade, wherein - = no toxicity; +1 = minimal; +2 = mild; +3 = moderate; and +4 = marked toxicity. The migration results are expressed as \"Grade in the Cleared Area of the Well / Grade in an Undisturbed Region of the Well.\" The toxicity values represent a grade for all cells in each well."}, "[9]": {"conditions": "mouse, in vivo"}, "[10]": {"tested_on": "left carotid artery"}, "[11]": {"tested_on": "Vascular smooth muscle cells", "conditions": "1 µg/ml; an anti-migration/contraction effective dose"}, "[12]": {"conditions": "8.0 µg/ml infused with MIC catheter after embolectomy or over-sized PTCA balloon trauma, sacrificed 4 weeks after intervention, mean"}, "[13]": {"conditions": "8-16 ml at 8.0 µg/ml, 4 weeks after intervention"}, "[14]": {"conditions": "7-day Recovery Post Exposure, 1.0 µg/mL"}}, "note": "Where two headings read alike, the source gives them in different places."}
{"molecule": "C=C1[C@@H](C)[C@H]2[C@H](Cc3ccccc3)NC(=O)[C@]23OC(=O)/C=C/[C@H](O)CCC[C@@H](C)C/C=C/[C@H]3[C@@H]1O", "note": "[cytochalasin B]", "values": [{"measurement": "minimum effective dose (MED), protein synthesis assay", "setting": "[1]; 5 minute exposure", "result": 10, "unit": "µg/mL"}, {"measurement": "minimum effective dose (MED), protein synthesis assay", "setting": "[1]; 24 hour exposure", "result": 1.0, "unit": "µg/mL"}, {"measurement": "BRDU labeling grade", "setting": "[2]", "result": "4 (4 = > 10/HPF)"}, {"measurement": "Neointimal Area", "setting": "[3]; [12]", "result": 1.56}, {"measurement": "luminal area", "setting": "[3]; [12]", "result": 0.58}, {"measurement": "arterial area bounded by the external elastic lamina", "setting": "[3]; [13]", "result": "trend toward beneficial arterial remodeling"}, {"measurement": "luminal area", "setting": "[3]; [13]", "result": "did not result in a statistically significant increase in luminal area"}, {"measurement": "Arterial Area", "setting": "[3]; area bounded by external elastic lamina, 8.0 µg/ml infused with MIC catheter, sacrificed 4 weeks after intervention, mean", "result": 1.80}, {"measurement": "Mean % Lumen Area", "setting": "[4]; 0.1 µg/mL, 4 Days Post Surgery", "result": 97.0, "unit": "%"}, {"measurement": "Mean % Lumen Area", "setting": "[4]; 1.5 µg/mL, 4 Days Post Surgery", "result": 101.7, "unit": "%"}, {"measurement": "Mean % Lumen Area", "setting": "[4]; 1.5 µg/mL, 21 Days Post Surgery", "result": 100.9, "unit": "%"}, {"measurement": "Mean % Lumen Area", "setting": "[4]; 10µg/mL, 4 Days Post Surgery", "result": 103.9, "unit": "%"}, {"measurement": "Mean % Lumen Area", "setting": "[4]; 10 µg/mL, 21 Days Post Surgery", "result": 110.9, "unit": "%"}, {"measurement": "myocardial or arterial lesions (histology)", "setting": "[4]; 0.1, 1.5 or 10.0 µg/ml", "result": "did not result in myocardial or arterial lesions"}, {"measurement": "Mean % Lumen Area", "setting": "[4]; 0.1 µ/mL, 21 Days Post Surgery", "result": 98.0, "unit": "%"}, {"measurement": "organ with the highest amount", "setting": "[5]; 50 mg/kg i.p.", "result": "highest amount of cytochalasin B was found in the liver"}, {"measurement": "remained in the peritoneal cavity or at the injection site", "setting": "[5]; 50 mg/kg i.p.", "result": "About 75%"}, {"measurement": "maximum tolerated dose", "setting": "[5]; may be administered every second day", "result": 50, "unit": "mg/kg"}, {"measurement": "dose without any indication of adverse effects or toxicity", "setting": "[6]", "result": "up to 600 µg/kg/day"}, {"measurement": "minimum effective dose (MED), DNA assay", "setting": "[7]; 5 minute exposure", "result": 10, "unit": "µg/mL"}, {"measurement": "therapeutic range (area under the curve of ^3H-leucine assay greater than ^3H-thymidine assay)", "setting": "[7]; 24 hour assays, 5% FBS", "result": "available therapeutic range"}, {"measurement": "minimum effective dose (MED), DNA synthesis assay", "setting": "[7]; 24 hour exposure", "result": 0.1, "unit": "µg/mL"}, {"measurement": "Migration Grade in an Undisturbed Region of the Well", "setting": "[8]; [14]", "result": "+3"}, {"measurement": "Migration Grade in the Cleared Area of the Well", "setting": "[8]; [14]", "result": "+2"}, {"measurement": "morphological Toxicity Grade", "setting": "[8]; Continuous Exposure, 0.1 µg/mL", "result": "+1"}, {"measurement": "Migration Grade in an Undisturbed Region of the Well", "setting": "[8]; Continuous Exposure, 1.0 µg/mL", "result": "+2"}, {"measurement": "Migration Grade in the Cleared Area of the Well", "setting": "[8]; Continuous Exposure, 1.0 µg/mL", "result": "-"}, {"measurement": "morphological Toxicity Grade", "setting": "[8]; Continuous Exposure, 1.0 µg/mL", "result": "+3"}, {"measurement": "levels in tissues", "setting": "[9]", "result": "very low levels"}, {"measurement": "maximal recovery from tissue extracts", "setting": "[9]; iv, 3.5 mg/kg", "result": 32, "unit": "%"}, {"measurement": "morphometry compared to untreated control animals", "setting": "[10]; 14 days, periadventitial crystals", "result": "no statistical difference from the controls"}, {"measurement": "toxicity at the surgical site", "setting": "[10]; periadventitial crystals: cytochalasin B 7.8 - 11.8 mg/rat, taxol 3.4 - 6.5 mg/rat", "result": "significant toxicity at the surgical site"}, {"measurement": "cytotoxicity grade", "setting": "[11]", "result": 1}]}
